Experimental data reported in patent publication US20110065754A1 (priority 2009, published 2011).
pIC50: −log10 of the molar value.

Key:
Ebola Zaire Virus = format: cell-based, Ebola virus (strain Zaire)
Marburg Ci67 = format: cell-based, Marburg virus
[1] = tested on: Ebola virus (strain Zaire); parameters: species or system Balb/c mice; settings: mouse, in vivo
Ebola Zaire = tested on: Ebola Zaire; parameters: species or system C57Bl/6 mice; settings: mouse, in vivo
Marburg Ravn = tested on: Marburg Ravn; parameters: species or system Balb/c mice; settings: mouse, in vivo
[2] = mouse, in vivo
[3] = mouse

| Compound | pIC50 (Ebola Zaire Virus) | pIC50 (Marburg Ci67) | survival rate [1] [%] | protection against Ebola virus (survival) (Ebola Zaire) | protection against Marburg virus (survival) (Marburg Ravn) | reversibility of symptoms after end of treatment [2] | weight loss [2] | weight loss compared to vehicle only control [2] | weight loss or adverse effects in vivo [3] |
| --- | --- | --- | --- | --- | --- | --- | --- | --- | --- |
| CCCCCCCCCN1C[C@H](O)[C@@H](O)[C@H](O)[C@H]1CO [NN-DNJ, N-Nonyl deoxynojirimycin] | 4.92 |  |  |  |  |  |  |  |  |
| [N-]=[N+]=Nc1ccc(NCCCCCCN2C[C@H](O)[C@@H](O)[C@H](O)[C@H]2CO)c([N+](=O)[O-])c1 [NAP-DNJ, N—(N-{4′-azido-2′-nitrophenyl}-6-aminohexyl)deoxynojirimycin] | 5.22 | 5.22 | 71 | significant protection | protection | symptoms promptly ceased when treatment was done | did not show signs of weight loss | did not show any significant signs of weight loss | no weight loss or adverse effects observed |
| COCCCCCCCCCN1C[C@H](O)[C@@H](O)[C@H](O)[C@H]1CO [Compound N9-DNJ, N-(9-Methoxynonyl) deoxynojirimycin] | 4.80 | 4.49 |  |  |  |  |  | did not show any significant signs of weight loss |  |
| CCCCN1C[C@H](O)[C@@H](O)[C@H](O)[C@H]1CO [NB-DNJ, N-Butyl deoxynojirimycin] | 4.49 |  |  |  |  |  |  | did not show any significant signs of weight loss |  |
| CCCOCCCCCCN1C[C@H](O)[C@@H](O)[C@H](O)[C@H]1CO [Compound N7-O-DNJ, N-(7-Oxadecyl)deoxynojirimycin] | 4.70 | 4.30 |  |  |  |  |  |  |  |
